Drawing on US12479820B2, “Pyridin-3-yl derivatives” (Idorsia Pharmaceuticals Ltd, priority 2019, dated 2025), this text covers IC50 for 30 compounds.

T1 sequence (Q92633 whole entry, the tested form may be a part): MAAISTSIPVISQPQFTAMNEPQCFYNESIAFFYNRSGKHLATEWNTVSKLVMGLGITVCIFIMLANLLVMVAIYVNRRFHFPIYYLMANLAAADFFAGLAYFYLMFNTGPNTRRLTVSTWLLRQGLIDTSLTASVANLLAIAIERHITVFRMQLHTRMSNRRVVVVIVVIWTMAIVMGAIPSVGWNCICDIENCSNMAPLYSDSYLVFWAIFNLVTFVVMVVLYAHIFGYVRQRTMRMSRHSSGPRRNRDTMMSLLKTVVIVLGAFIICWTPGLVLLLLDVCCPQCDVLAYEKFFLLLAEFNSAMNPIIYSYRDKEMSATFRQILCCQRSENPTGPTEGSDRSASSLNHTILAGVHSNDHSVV

This test concerns the target T1, human LPA1 receptor (Homo sapiens, UniProt Q92633).
T1 construct: TEV protease site; Gal4-VP16 transcription factor; host or cells: Tango EDG2-bla U2OS cells
Briefly: Beta-arrestin recruitment assay to determine IC50 values for human LPAR1. It counts as cell-based. As to conditions: Tango EDG2-bla U2OS cells, antagonist assay, LPA 18:1 500 nM final. The source says: Beta-Arrestin Recruitment Assay to Determine IC50 Values for Human LPAR1
The Tango™ EDG2-bla U2OS cells are obtained from Invitrogen. These cells contain the human LPA1 receptor cDNA linked to a TEV protease site and a Gal4-VP16 transcription factor integrated into the Tango™ GPCR-bla U2OS parental cell line. This parental cell line stably expresses a beta-arrestin/TEV protease fusion protein and the beta-lactamase (bla) reporter gene under the control of a UAS response element. Upon LPA (agonist) binding, LPA1 receptor gets activated, leading to arrestin-protease recruitment and proteolytic release of the transcription factor: The transcription factor then regulates transcription of a beta-lactamase reporter construct, which is measured upon addition of the live-cell substrate.
10′000 Tango™ EDG2-bla U2OS cells are seeded in a 384-well black with clear bottom plate in 30 μl Freestyle 293 Expression Medium (Invitrogen) and incubated for 20 h at 37° C., 5% CO2. For antagonist assays, 5 μl of test compound (dilution series in DMSO/Freestyle 293 Expression medium/0.1% fatty acid free BSA (Sigma)) or buffer control are added per well and incubated for 30 min at 37° C., 5% CO2. 5 μl of LPA 18:1 (500 nM final) (solution in Freestyle 293 Expression medium/0.1% fatty acid free BSA (Sigma)) are added per well and the plate incubated for 16 h at 37° C., 5% CO2. Cells are then loaded with LiveBLAzer-FRET™ B/G Substrate (Invitrogen) for 2 h in the dark and the fluorescence emission at 460 nm and 530 nm is measured using the SynergyMx reader (BioTek). Following the background subtraction from both channels, the 460/530 nm emission ratio for each well is calculated, then plotted and fitted to a 4-parameter logistic function to obtain IC50 values. IC50 is the concentration of antagonist inhibiting 50% of the maximal response.
(Recruitment of arrestin is a read-out of receptor activation apart from second messengers.)
The IC50 is the midpoint of a concentration-inhibition curve. As to `CCOc1cc(Cl)ncc1NC(=O)C1(c2ccccc2C(C)C)CN(CCC(C)(C)C(=O)O)C1` [Example 18-19, 4-(3-((6-chloro-4-ethoxypyridin-3-yl)carbamoyl)-3-(2-isopropylphenyl)azetidin-1-yl)-2,2-dimethylbutanoic acid], the IC50 came to 21 nM. As to `COc1cc(F)ncc1NC(=O)C1(c2ccccc2C(C)C)CNC1` [Example 1, N-(6-fluoro-4-methoxypyridin-3-yl)-3-(2-isopropylphenyl)azetidine-3-carboxamide], the IC50 was determined as 48 nM. Take `COc1cc(C(F)(F)F)ncc1NC(=O)C1(c2ccccc2C(C)C)CNC1` [Example 12, 3-(2-isopropylphenyl)-N-(4-methoxy-6-(trifluoromethyl)pyridin-3-yl)azetidine-3-carboxamide]: the IC50 came out at 1200 nM.

With `COc1cc(Cl)ncc1NC(=O)C1(c2ccccc2C(C)C)CN(Cc2c[nH]nn2)C1` [Example 18-15, 1-((1H-1,2,3-triazol-4-yl)methyl)-N-(6-chloro-4-methoxypyridin-3-yl)-3-(2-isopropylphenyl)azetidine-3-carboxamide], the IC50 stood at 61 nM. Turning to `COc1cc(Cl)ncc1NC(=O)C1(c2ccccc2C(C)C)CN(C(=O)c2noc(O)n2)C1` [Example 19-6, N-(6-chloro-4-methoxypyridin-3-yl)-1-(5-hydroxy-1,2,4-oxadiazole-3-carbonyl)-3-(2-isopropylphenyl)azetidine-3-carboxamide], the 50% inhibitory concentration (IC50) is 61 nM.

Consider `COc1ccncc1NC(=O)C1(c2ccccc2C(C)C)CN(S(N)(=O)=O)C1` [Example 21-18, 3-(2-isopropylphenyl)-N-(4-methoxypyridin-3-yl)-1-sulfamoylazetidine-3-carboxamide], for which the half-inhibitory concentration (IC50) came to 1560 nM. Turning to `COC[C@H](C)Oc1cc(Cl)ncc1NC(=O)C1(c2ccccc2C(C)C)CNC1` [Example 9, (S)-N-(6-chloro-4-((1-methoxypropan-2-yl)oxy)pyridin-3-yl)-3-(2-isopropylphenyl)azetidine-3-carboxamide], the IC50 came out at 4 nM.

Consider `COC(=O)c1cnc(N2CC(C(=O)Nc3cnc(Cl)cc3OC)(c3ccccc3C(C)C)C2)cn1` [Example 24-19, methyl 5-(3-((6-chloro-4-methoxypyridin-3-yl)carbamoyl)-3-(2-isopropylphenyl)azetidin-1-yl)pyrazine-2-carboxylate], for which the IC50 turned out to be 9 nM.

Take `COc1cc(Cl)ncc1NC(=O)C1(c2ccccc2C(C)C)CN(CCC(C)(C)C(=O)O)C1` [Example 18-17, 4-(3-((6-chloro-4-methoxypyridin-3-yl)carbamoyl)-3-(2-isopropylphenyl)azetidin-1-yl)-2,2-dimethylbutanoic acid]: the IC50 worked out at 27 nM. For the compound “4-(4-((6-chloro-4-methoxypyridin-3-yl)carbamoyl)-4-(2-isopropylphenyl)piperidin-1-yl)-2,2-dimethyl-4-oxobutanoic acid [Example 19-20]”, the IC50 was found to be 22 nM.

Consider `COC(=O)C(C)(C)CCN1CC(C(=O)Nc2cnc(Cl)cc2OC)(c2ccccc2C(C)C)C1` [Example 18-16, methyl 4-(3-((6-chloro-4-methoxypyridin-3-yl)carbamoyl)-3-(2-isopropylphenyl)azetidin-1-yl)-2,2-dimethylbutanoate], for which the IC50 worked out at 111 nM. As for `COC(=O)c1ccc(N2CC(C(=O)Nc3cnc(Cl)cc3OC)(c3ccccc3C(C)C)C2)nc1` [Example 24-21, methyl 6-(3-((6-chloro-4-methoxypyridin-3-yl)carbamoyl)-3-(2-isopropylphenyl)azetidin-1-yl)nicotinate], the half-inhibitory concentration (IC50) came to 12 nM. Turning to `COc1cc(Cl)ncc1NC(=O)C1(c2ccccc2C(C)C)CN(c2cc(C)nc(C)c2)C1` [Example 24-6, N-(6-chloro-4-methoxypyridin-3-yl)-1-(2,6-dimethylpyridin-4-yl)-3-(2-isopropylphenyl)azetidine-3-carboxamide], the IC50 came to 91 nM. As to `COc1cc(Cl)ncc1NC(=O)C1(c2nc(F)ccc2C(C)C)CNC1` [Example 16, N-(6-chloro-4-methoxypyridin-3-yl)-3-(6-fluoro-3-isopropylpyridin-2-yl)azetidine-3-carboxamide], the IC50 is 419 nM. Regarding `COc1cc(Cl)ncc1NC(=O)C1(c2ccccc2C(C)C)CN(c2cc(C)ncn2)C1` [Example 24-14, N-(6-chloro-4-methoxypyridin-3-yl)-3-(2-isopropylphenyl)-1-(6-methylpyrimidin-4-yl)azetidine-3-carboxamide], the IC50 came to 8 nM. With `COc1cc(C)ncc1NC(=O)C1(c2ccccc2C(C)C)CN(S(N)(=O)=O)C1` [Example 21-10, 3-(2-isopropylphenyl)-N-(4-methoxy-6-methylpyridin-3-yl)-1-sulfamoylazetidine-3-carboxamide], the IC50 stood at 37 nM. For `COC(=O)c1cnc(N2CC(C(=O)Nc3cnc(Cl)cc3OC)(c3ccccc3C(C)C)C2)nc1` [Example 24-22, methyl 2-(3-((6-chloro-4-methoxypyridin-3-yl)carbamoyl)-3-(2-isopropylphenyl)azetidin-1-yl)pyrimidine-5-carboxylate], the IC50 was found to be 22 nM. Regarding `COc1cc(Cl)ncc1NC(=O)C1(c2ccccc2C(C)C)CN(c2cc(Cl)nc(C)n2)C1` [Example 24-15, 1-(6-chloro-2-methylpyrimidin-4-yl)-N-(6-chloro-4-methoxypyridin-3-yl)-3-(2-isopropylphenyl)azetidine-3-carboxamide], the IC50 came to 29 nM.

Regarding `COc1cc(Cl)ncc1NC(=O)C1(c2ccccc2C(C)C)CN(CCCC(C)(C)C(=O)O)C1` [Example 18-25, 5-(3-((6-chloro-4-methoxypyridin-3-yl)carbamoyl)-3-(2-isopropylphenyl)azetidin-1-yl)-2,2-dimethylpentanoic acid], the IC50 was found to be 47 nM.

In the case of `COc1cc(Cl)ncc1NC(=O)C1(c2ccccc2C(C)C)CN(S(C)(=O)=O)C1` [Example 20-1, N-(6-chloro-4-methoxypyridin-3-yl)-3-(2-isopropylphenyl)-1-(methylsulfonyl)azetidine-3-carboxamide], the IC50 was 11 nM. Under `COc1cc(Cl)ncc1NC(=O)C1(c2ccccc2C2CCCC2)CN(S(N)(=O)=O)C1` [Example 21-19, N-(6-chloro-4-methoxypyridin-3-yl)-3-(2-cyclopentylphenyl)-1-sulfamoylazetidine-3-carboxamide] stands 4 nM. `COc1cc(Br)ncc1NC(=O)C1(c2ccccc2C(C)C)CN(C(=O)CC(C)(C)C(=O)O)C1` [Example 19-19, 4-(3-((6-bromo-4-methoxypyridin-3-yl)carbamoyl)-3-(2-isopropylphenyl)azetidin-1-yl)-2,2-dimethyl-4-oxobutanoic acid]: the IC50 amounted to 21 nM. `COc1cc(Cl)ncc1NC(=O)C1(c2ccccc2C(C)C)CN(C2CCC2)C1` [Example 18-8, N-(6-chloro-4-methoxypyridin-3-yl)-1-cyclobutyl-3-(2-isopropylphenyl)azetidine-3-carboxamide]: the IC50 came out at 3 nM. To `COc1cc(Cl)ncc1NC(=O)C1(c2ccccc2C(C)C)CN(c2nc(C)ncc2F)C1` [Example 24-16, N-(6-chloro-4-methoxypyridin-3-yl)-1-(5-fluoro-2-methylpyrimidin-4-yl)-3-(2-isopropylphenyl)azetidine-3-carboxamide] belongs 13 nM. Under `COc1cc(Cl)ncc1NC(=O)C1(c2ccccc2C(C)C)CN(C(=O)NC2CC2)C1` [Example 22-5, N3-(6-chloro-4-methoxypyridin-3-yl)-N1-cyclopropyl-3-(2-isopropylphenyl)azetidine-1,3-dicarboxamide] stands 5 nM; under `COc1cc(Cl)ncc1NC(=O)C1(c2ccccc2C(C)C)CCN(S(N)(=O)=O)CC1` [Example 21-8, N-(6-chloro-4-methoxypyridin-3-yl)-4-(2-isopropylphenyl)-1-sulfamoylpiperidine-4-carboxamide], 16 nM; under `COc1cc(Cl)ncc1NC(=O)C1(c2ccccc2C(C)C)CN(C(=O)c2cc(O)no2)C1` [Example 19-5, N-(6-chloro-4-methoxypyridin-3-yl)-1-(3-hydroxyisoxazole-5-carbonyl)-3-(2-isopropylphenyl)azetidine-3-carboxamide], 270 nM. Under `CC(C)c1ccccc1C1(C(=O)Nc2cnc(Cl)cc2OC2CC2)CNC1` [Example 7, N-(6-chloro-4-cyclopropoxypyridin-3-yl)-3-(2-isopropylphenyl)azetidine-3-carboxamide] stands 41 nM; under `COc1cc(Cl)ncc1NC(=O)C1(c2ccccc2C(C)C)CN(S(=O)(=O)CCO)C1` [Example 20-3, N-(6-chloro-4-methoxypyridin-3-yl)-1-((2-hydroxyethyl)sulfonyl)-3-(2-isopropylphenyl)azetidine-3-carboxamide], 21 nM. For `CCOc1cc(Cl)ncc1NC(=O)C1(c2ccccc2C(C)C)CN(CCCC(C)(C)C(=O)O)C1` [Example 18-27, 5-(3-((6-chloro-4-ethoxypyridin-3-yl)carbamoyl)-3-(2-isopropylphenyl)azetidin-1-yl)-2,2-dimethylpentanoic acid], the IC50 came out at 21 nM.
